From patent US9408906B2, “Peptide particle formulation” (FLOW PHARMA, INC., priority 2010, dated 2016)

Tested on: Mature dendrocytes mixed with T-Lymphocytes
Assay: Antigen presentation and T cell stimulation: production of human γ-IFN measured by ELISA
Type: cell-based
Conditions: human γ-IFN production after 2 hours incubation; HLA-A02 CMV-exposed donor PBMC-derived dendrocytes + T-lymphocytes; free peptide at 10^−9 M or 15 micron PLGA microspheres with approximately 2% NLVPMVATV
Text: Preparation of Dendritic Cells from peripheral blood mononuclear cells (PBMC). Frozen PBMC cells were obtained from Cellular Technology Limited, from volunteer donors known to have been exposed to CMV, and to be HLA-A02. The volunteer's antigen presenting cells were known to be capable of presenting HCMV pp 65 (NLVPMVATV) CMV epitope to T lymphocytes. Human PBMC (Peripheral Blood Mononuclear Cells) isolated from leukopacks and frozen in serum-free CTL-Cryo™ medium. These leukopacks were ethically collected from healthy donors tested for: HBsAg, HBcAb, HCV, HTLV I/II, and STS by serology; as well as HIV I, HCV, and WNV by NAT.
Cells were thawed and plated at a concentration of 1×10^5 monocytes/well of a 24-well plate in medium supplemented with GM-CSF at a final concentration of 50 ng/ml and IL-4 at a final concentration of 100 ng/ml. Cells were maintained in culture at 37° C./5% CO2 for 6 days; and used with 8 days after that point. Optical microscopy confirmed maturation of monocytes to dendrocytes capable of phagocytosis of 15 micron PLGA microspheres.
Presentation of antigen and stimulation of T cells was assessed by production of human γ-IFN, measured by ELISA. […] Production of γ-IFN was measured after 2 hours.

Sequence: NLVPMVATV [free peptide]
- ELISA Optical Density: 0.612
